# PubChem BioAssay (NCI)
#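 Method: 48-hour compound exposure of cells in 96-well plates, five concentrations, linear interpolation of endpoints. Definition used: TGI = concentration required for complete inhibition of growth.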
# Test system: A549 NSCLC
# Experiment: growth of human tumour cells (NCI), 48 h
row,SMILES,TGI
1,Cc1c(N2CCOCC2)nc2ccc(Cl)cc2c1-c1ccccc1,> 100 µM
2,O=c1[nH]c(NCc2ccncc2)nc2nc[nH]c12,> 100 µM
3,O=CC(I)=C(c1ccccc1)c1ccccc1,36.1 µM
4,c1c[nH]c(-c2cccc3nsnc23)c1,> 100 µM
5,Cn1c2ccccc2c2ccc3c(c21)C(=O)c1ccc2c4ccccc4n(C)c2c1C3=O,> 100 µM
6,COc1ccc(C)cc1N1C(=O)C2ON(Cc3ccc(CC(N)=O)cc3)C(c3c4ccccc4c(Cl)c4ccccc34)C2C1=O (stereo not given),> 100 µM
7,COc1ccc(C2Oc3ccc(Cl)cc3C=C2[N+](=O)[O-])cc1 (stereo not given),> 100 µM
8,NS(=O)(=O)c1nnc(NC(=O)N(c2ccccc2)c2ccccc2)s1,> 100 µM
9,COC(=O)c1ccccc1C1CN=NC12Cc1c(ccc(C)c1C)C2=O (stereo not given),> 100 µM
10,CN(C)CCN(c1ccccn1)c1ccccn1,> 100 µM
11,O=C(O)c1nc2ccc(C(F)(F)F)cc2[nH]c1=O,> 100 µM
12,CN(CCN1CCCC1)C1CCc2cc(Cl)c(Cl)cc2C1 (stereo not given),32.4 µM
13,CC(C)Oc1cccc(N2C(n3ccnc3)=Nc3ccncc3S2(=O)=O)c1,37.2 µM
14,CO/N=C1\CC(NC(=O)C(F)(F)F)c2ccsc21 (stereo not given),> 100 µM
15,COC(=O)/C=C(\C)CC/C=C(\C)CCC1OC1(C)C (stereo not given),24.1 µM
16,CC(C)NC(=O)OCc1c(COC(=O)NC(C)C)n(C)c2c1ccc1sccc12,> 54.2 µM
17,O=C(CC(NC(=O)C(F)(F)F)C(=O)O)OCc1ccccc1 (stereo not given),> 100 µM
18,CC(=O)NNc1nc(C)c(C(=O)NNC(=O)C(=O)Nc2ccc([N+](=O)[O-])cc2[N+](=O)[O-])s1,> 100 µM
19,CCOC(=O)C1C(c2ccc(Cl)cc2Cl)NC(c2ccc(C)cc2)C(C(=O)OC)S1(=O)=O (stereo not given),> 100 µM
20,CN(/N=C1\C(=O)Nc2ccccc21)c1ccccc1,> 100 µM

# Test system: HOP-62 NSCLC
# Experiment: growth of human tumour cells (NCI), 48 h
row,SMILES,TGI
1,Cc1c(N2CCOCC2)nc2ccc(Cl)cc2c1-c1ccccc1,> 100 µM
2,O=c1[nH]c(NCc2ccncc2)nc2nc[nH]c12,> 100 µM
3,O=CC(I)=C(c1ccccc1)c1ccccc1,32 µM
4,c1c[nH]c(-c2cccc3nsnc23)c1,> 100 µM
5,Cn1c2ccccc2c2ccc3c(c21)C(=O)c1ccc2c4ccccc4n(C)c2c1C3=O,> 100 µM
6,COc1ccc(C)cc1N1C(=O)C2ON(Cc3ccc(CC(N)=O)cc3)C(c3c4ccccc4c(Cl)c4ccccc34)C2C1=O (stereo not given),93.7 µM
7,COc1ccc(C2Oc3ccc(Cl)cc3C=C2[N+](=O)[O-])cc1 (stereo not given),> 100 µM
8,NS(=O)(=O)c1nnc(NC(=O)N(c2ccccc2)c2ccccc2)s1,77.3 µM
9,COC(=O)c1ccccc1C1CN=NC12Cc1c(ccc(C)c1C)C2=O (stereo not given),> 100 µM
10,CN(C)CCN(c1ccccn1)c1ccccn1,> 100 µM
11,O=C(O)c1nc2ccc(C(F)(F)F)cc2[nH]c1=O,> 100 µM
12,CN(CCN1CCCC1)C1CCc2cc(Cl)c(Cl)cc2C1 (stereo not given),32.7 µM
13,CC(C)Oc1cccc(N2C(n3ccnc3)=Nc3ccncc3S2(=O)=O)c1,33.6 µM
14,CO/N=C1\CC(NC(=O)C(F)(F)F)c2ccsc21 (stereo not given),> 100 µM
15,COC(=O)/C=C(\C)CC/C=C(\C)CCC1OC1(C)C (stereo not given),26.7 µM
16,CC(C)NC(=O)OCc1c(COC(=O)NC(C)C)n(C)c2c1ccc1sccc12,46.4 µM
17,O=C(CC(NC(=O)C(F)(F)F)C(=O)O)OCc1ccccc1 (stereo not given),> 100 µM
18,CC(=O)NNc1nc(C)c(C(=O)NNC(=O)C(=O)Nc2ccc([N+](=O)[O-])cc2[N+](=O)[O-])s1,> 100 µM
19,CCOC(=O)C1C(c2ccc(Cl)cc2Cl)NC(c2ccc(C)cc2)C(C(=O)OC)S1(=O)=O (stereo not given),> 100 µM
20,CN(/N=C1\C(=O)Nc2ccccc21)c1ccccc1,> 100 µM

# Test system: HT29 colon
# Experiment: growth of human tumour cells (NCI), 48 h
row,SMILES,TGI
1,Cc1c(N2CCOCC2)nc2ccc(Cl)cc2c1-c1ccccc1,> 100 µM
2,O=c1[nH]c(NCc2ccncc2)nc2nc[nH]c12,> 100 µM
3,O=CC(I)=C(c1ccccc1)c1ccccc1,29.4 µM
4,c1c[nH]c(-c2cccc3nsnc23)c1,> 100 µM
5,Cn1c2ccccc2c2ccc3c(c21)C(=O)c1ccc2c4ccccc4n(C)c2c1C3=O,> 100 µM
6,COc1ccc(C)cc1N1C(=O)C2ON(Cc3ccc(CC(N)=O)cc3)C(c3c4ccccc4c(Cl)c4ccccc34)C2C1=O (stereo not given),40.9 µM
7,COc1ccc(C2Oc3ccc(Cl)cc3C=C2[N+](=O)[O-])cc1 (stereo not given),> 100 µM
8,NS(=O)(=O)c1nnc(NC(=O)N(c2ccccc2)c2ccccc2)s1,> 100 µM
9,COC(=O)c1ccccc1C1CN=NC12Cc1c(ccc(C)c1C)C2=O (stereo not given),> 100 µM
10,CN(C)CCN(c1ccccn1)c1ccccn1,> 100 µM
11,O=C(O)c1nc2ccc(C(F)(F)F)cc2[nH]c1=O,> 100 µM
12,CN(CCN1CCCC1)C1CCc2cc(Cl)c(Cl)cc2C1 (stereo not given),22.8 µM
13,CC(C)Oc1cccc(N2C(n3ccnc3)=Nc3ccncc3S2(=O)=O)c1,34.9 µM
14,CO/N=C1\CC(NC(=O)C(F)(F)F)c2ccsc21 (stereo not given),> 100 µM
15,COC(=O)/C=C(\C)CC/C=C(\C)CCC1OC1(C)C (stereo not given),27.6 µM
16,CC(C)NC(=O)OCc1c(COC(=O)NC(C)C)n(C)c2c1ccc1sccc12,> 82.6 µM
17,O=C(CC(NC(=O)C(F)(F)F)C(=O)O)OCc1ccccc1 (stereo not given),> 100 µM
18,CC(=O)NNc1nc(C)c(C(=O)NNC(=O)C(=O)Nc2ccc([N+](=O)[O-])cc2[N+](=O)[O-])s1,> 100 µM
19,CCOC(=O)C1C(c2ccc(Cl)cc2Cl)NC(c2ccc(C)cc2)C(C(=O)OC)S1(=O)=O (stereo not given),> 100 µM
20,CN(/N=C1\C(=O)Nc2ccccc21)c1ccccc1,> 100 µM

# Test system: K-562 leukemia
# Experiment: growth of human tumour cells (NCI), 48 h
row,SMILES,TGI
1,Cc1c(N2CCOCC2)nc2ccc(Cl)cc2c1-c1ccccc1,> 100 µM
2,O=c1[nH]c(NCc2ccncc2)nc2nc[nH]c12,> 100 µM
3,O=CC(I)=C(c1ccccc1)c1ccccc1,> 71 µM
4,c1c[nH]c(-c2cccc3nsnc23)c1,> 100 µM
5,Cn1c2ccccc2c2ccc3c(c21)C(=O)c1ccc2c4ccccc4n(C)c2c1C3=O,> 100 µM
6,COc1ccc(C)cc1N1C(=O)C2ON(Cc3ccc(CC(N)=O)cc3)C(c3c4ccccc4c(Cl)c4ccccc34)C2C1=O (stereo not given),> 100 µM
7,COc1ccc(C2Oc3ccc(Cl)cc3C=C2[N+](=O)[O-])cc1 (stereo not given),> 100 µM
8,NS(=O)(=O)c1nnc(NC(=O)N(c2ccccc2)c2ccccc2)s1,> 100 µM
9,COC(=O)c1ccccc1C1CN=NC12Cc1c(ccc(C)c1C)C2=O (stereo not given),> 100 µM
10,CN(C)CCN(c1ccccn1)c1ccccn1,> 100 µM
11,O=C(O)c1nc2ccc(C(F)(F)F)cc2[nH]c1=O,> 100 µM
12,CN(CCN1CCCC1)C1CCc2cc(Cl)c(Cl)cc2C1 (stereo not given),> 100 µM
13,CC(C)Oc1cccc(N2C(n3ccnc3)=Nc3ccncc3S2(=O)=O)c1,36.6 µM
14,CO/N=C1\CC(NC(=O)C(F)(F)F)c2ccsc21 (stereo not given),> 100 µM
15,COC(=O)/C=C(\C)CC/C=C(\C)CCC1OC1(C)C (stereo not given),22 µM
16,CC(C)NC(=O)OCc1c(COC(=O)NC(C)C)n(C)c2c1ccc1sccc12,> 52.2 µM
17,O=C(CC(NC(=O)C(F)(F)F)C(=O)O)OCc1ccccc1 (stereo not given),> 100 µM
18,CC(=O)NNc1nc(C)c(C(=O)NNC(=O)C(=O)Nc2ccc([N+](=O)[O-])cc2[N+](=O)[O-])s1,> 100 µM
19,CCOC(=O)C1C(c2ccc(Cl)cc2Cl)NC(c2ccc(C)cc2)C(C(=O)OC)S1(=O)=O (stereo not given),> 100 µM
20,CN(/N=C1\C(=O)Nc2ccccc21)c1ccccc1,> 100 µM

# Test system: M14 melanoma
# Experiment: growth of human tumour cells (NCI), 48 h
row,SMILES,TGI
1,Cc1c(N2CCOCC2)nc2ccc(Cl)cc2c1-c1ccccc1,> 100 µM
2,O=c1[nH]c(NCc2ccncc2)nc2nc[nH]c12,> 100 µM
3,O=CC(I)=C(c1ccccc1)c1ccccc1,35.2 µM
4,c1c[nH]c(-c2cccc3nsnc23)c1,> 100 µM
5,Cn1c2ccccc2c2ccc3c(c21)C(=O)c1ccc2c4ccccc4n(C)c2c1C3=O,> 100 µM
6,COc1ccc(C)cc1N1C(=O)C2ON(Cc3ccc(CC(N)=O)cc3)C(c3c4ccccc4c(Cl)c4ccccc34)C2C1=O (stereo not given),38.8 µM
7,COc1ccc(C2Oc3ccc(Cl)cc3C=C2[N+](=O)[O-])cc1 (stereo not given),> 100 µM
8,NS(=O)(=O)c1nnc(NC(=O)N(c2ccccc2)c2ccccc2)s1,35.3 µM
9,COC(=O)c1ccccc1C1CN=NC12Cc1c(ccc(C)c1C)C2=O (stereo not given),> 100 µM
10,CN(C)CCN(c1ccccn1)c1ccccn1,> 100 µM
11,O=C(O)c1nc2ccc(C(F)(F)F)cc2[nH]c1=O,> 100 µM
12,CN(CCN1CCCC1)C1CCc2cc(Cl)c(Cl)cc2C1 (stereo not given),31.5 µM
13,CC(C)Oc1cccc(N2C(n3ccnc3)=Nc3ccncc3S2(=O)=O)c1,28.2 µM
14,CO/N=C1\CC(NC(=O)C(F)(F)F)c2ccsc21 (stereo not given),> 100 µM
15,COC(=O)/C=C(\C)CC/C=C(\C)CCC1OC1(C)C (stereo not given),22.9 µM
16,CC(C)NC(=O)OCc1c(COC(=O)NC(C)C)n(C)c2c1ccc1sccc12,36.7 µM
17,O=C(CC(NC(=O)C(F)(F)F)C(=O)O)OCc1ccccc1 (stereo not given),> 100 µM
18,CC(=O)NNc1nc(C)c(C(=O)NNC(=O)C(=O)Nc2ccc([N+](=O)[O-])cc2[N+](=O)[O-])s1,> 100 µM
19,CCOC(=O)C1C(c2ccc(Cl)cc2Cl)NC(c2ccc(C)cc2)C(C(=O)OC)S1(=O)=O (stereo not given),> 100 µM
20,CN(/N=C1\C(=O)Nc2ccccc21)c1ccccc1,> 100 µM
